Measured values published in ChEMBL document CHEMBL1201862, “PubChem BioAssay data set” (2004).
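Compound exposure: 48 hours, 5 concentrations, 96-well plates. GI50 marks 50% less growth.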 Active and inactive are the calls of the source. Rule as the data show it: active = GI50 up to about 1.1 µM and inactive = higher.

Columns and labels:
Experiment in all cases: NCI anticancer screen, dose series, 48 h
HCT-15 = system: HCT-15
SF-295 = system: SF-295
TK-10 = system: TK-10
T47D = system: T47D
PC-3 = system: PC-3
UO-31 = system: UO-31
MDA-MB-231 = system: MDA-MB-231
HL-60 = system: HL-60
UACC-257 = system: UACC-257
SN12C = system: SN12C
NCI-H23 = system: NCI-H23
SK-OV-3 = system: SK-OV-3
SF-268 = system: SF-268
SR = system: SR
HCT-116 = system: HCT-116
NCI-H460 = system: NCI-H460
OVCAR-8 = system: OVCAR-8
CCRF-CEM = system: CCRF-CEM
MOLT-4 = system: MOLT-4
HT-29 = system: HT-29
A498 = system: A498
LOX IMVI = system: LOX IMVI
MDA-N = system: MDA-N
MDA-MB-435 = system: MDA-MB-435
HCC 2998 = system: HCC 2998
SK-MEL-2 = system: SK-MEL-2
ACHN = system: ACHN
SK-MEL-28 = system: SK-MEL-28
BT-549 = system: BT-549
M14 = system: M14
COLO 205 = system: COLO 205
K562 = system: K562
HOP-92 = system: HOP-92
SNB-19 = system: SNB-19
UACC-62 = system: UACC-62
SW-620 = system: SW-620
OVCAR-3 = system: OVCAR-3
CAKI-1 = system: CAKI-1
RPMI-8226 = system: RPMI-8226
U-251 = system: U-251
NCI/ADR-RES = system: NCI/ADR-RES
IGROV-1 = system: IGROV-1
MCF7 = system: MCF7
DU-145 = system: DU-145
OVCAR-4 = system: OVCAR-4
786-0 = system: 786-0
KM12 = system: KM12
NCI-H226 = system: NCI-H226
Hs-578T = system: Hs-578T
Malme-3M = system: Malme-3M
SF-539 = system: SF-539
A549 = system: A549
HOP-62 = system: HOP-62
SNB-75 = system: SNB-75
OVCAR-5 = system: OVCAR-5
SK-MEL-5 = system: SK-MEL-5
EKVX = system: EKVX
RXF 393 = system: RXF 393

Compound: O=C1C[C@@H](Sc2ccccc2)C2(OCCO2)[C@H]2ON3CCC[C@@H]3[C@@H]12
- GI50 (HCT-15): 2440 nM
- GI50 (SF-295): 11.4 µM (inactive)
- GI50 (TK-10): 6.71 µM (inactive)
- GI50 (T47D): 2.83 µM (inactive)
- GI50 (PC-3): 4.55 µM (inactive)
- GI50 (UO-31): 1.94 µM (inactive)
- GI50 (MDA-MB-231): 3.06 µM (inactive)
- GI50 (HL-60): 1.38 µM (inactive)
- GI50 (UACC-257): 13.4 µM (inactive)
- GI50 (SN12C): 2.33 µM (inactive)
- GI50 (NCI-H23): 4.61 µM (inactive)
- GI50 (SK-OV-3): 13.2 µM (inactive)
- GI50 (SF-268): 2.95 µM (inactive)
- GI50 (SR): 1.3 µM (inactive)
- GI50 (HCT-116): 1.55 µM (inactive)
- GI50 (NCI-H460): 4.36 µM (inactive)
- GI50 (OVCAR-8): 2.03 µM (inactive)
- GI50 (CCRF-CEM): 782 nM (active)
- GI50 (MOLT-4): 1.04 µM (active)
- GI50 (HT-29): 1.17 µM (inactive)
- GI50 (A498): 10.9 µM (inactive)
- GI50 (LOX IMVI): 3.1 µM (inactive)
- GI50 (MDA-N): 2.7 µM (inactive)
- GI50 (MDA-MB-435): 2.58 µM (inactive)
- GI50 (HCC 2998): 8 µM (inactive)
- GI50 (SK-MEL-2): 3.72 µM (inactive)
- GI50 (ACHN): 3.4 µM (inactive)
- GI50 (SK-MEL-28): 7.83 µM (inactive)
- GI50 (BT-549): 6.53 µM (inactive)
- GI50 (M14): 2.12 µM (inactive)
- GI50 (COLO 205): 2.48 µM (inactive)
- GI50 (K562): 2.56 µM (inactive)
- GI50 (HOP-92): 3.89 µM (inactive)
- GI50 (SNB-19): 14.8 µM (inactive)
- GI50 (UACC-62): 10.9 µM (inactive)
- GI50 (SW-620): 2.14 µM (inactive)
- GI50 (OVCAR-3): 1.68 µM (inactive)
- GI50 (CAKI-1): 4.42 µM (inactive)
- GI50 (RPMI-8226): 2.85 µM (inactive)
- GI50 (U-251): 3.33 µM (inactive)
- GI50 (NCI/ADR-RES): 3.31 µM (inactive)
- GI50 (IGROV-1): 2.24 µM (inactive)
- GI50 (MCF7): 3.33 µM (inactive)
- GI50 (DU-145): 2.55 µM (inactive)
- GI50 (OVCAR-4): 5 µM (inactive)
- GI50 (786-0): 2.07 µM (inactive)
- GI50 (KM12): 4.4 µM (inactive)
- GI50 (NCI-H226): 7.67 µM (inactive)
- GI50 (Hs-578T): 2.77 µM (inactive)
- GI50 (Malme-3M): 1.82 µM (inactive)
- GI50 (SF-539): 2.87 µM (inactive)
- GI50 (A549): 10.3 µM (inactive)
- GI50 (HOP-62): 3.16 µM (inactive)

Compound: C#CCn1c(=O)c(C)cn(/C(=C/C(=O)OCC)C(=O)OCC)c1=O
- GI50 (HCT-15): 1210 nM
- GI50 (SF-295): 18.5 µM (inactive)
- GI50 (TK-10): 2.01 µM (inactive)
- GI50 (T47D): 4.73 µM (inactive)
- GI50 (PC-3): 12.6 µM (inactive)
- GI50 (UO-31): 11.3 µM (inactive)
- GI50 (MDA-MB-231): 15.3 µM (inactive)
- GI50 (HL-60): 3.61 µM (inactive)
- GI50 (UACC-257): 14.4 µM (inactive)
- GI50 (SN12C): 8.57 µM (inactive)
- GI50 (NCI-H23): 9.57 µM (inactive)
- GI50 (SK-OV-3): 21.9 µM (inactive)
- GI50 (SF-268): 12.4 µM (inactive)
- GI50 (SR): 3.5 µM (inactive)
- GI50 (HCT-116): 4.67 µM (inactive)
- GI50 (SNB-75): 15 µM (inactive)
- GI50 (NCI-H460): 1.95 µM (inactive)
- GI50 (OVCAR-8): 2.49 µM (inactive)
- GI50 (CCRF-CEM): 1040 nM (active)
- GI50 (MOLT-4): 3.43 µM (inactive)
- GI50 (HT-29): 2.23 µM (inactive)
- GI50 (A498): 16 µM (inactive)
- GI50 (LOX IMVI): 10.4 µM (inactive)
- GI50 (MDA-N): 15 µM (inactive)
- GI50 (MDA-MB-435): 6.35 µM (inactive)
- GI50 (HCC 2998): 17.8 µM (inactive)
- GI50 (SK-MEL-2): 13.2 µM (inactive)
- GI50 (ACHN): 1.84 µM (inactive)
- GI50 (SK-MEL-28): 4.9 µM (inactive)
- GI50 (BT-549): 8.11 µM (inactive)
- GI50 (M14): 2.92 µM (inactive)
- GI50 (OVCAR-5): 3.64 µM (inactive)
- GI50 (COLO 205): 2.38 µM (inactive)
- GI50 (K562): 2.84 µM (inactive)
- GI50 (HOP-92): 3.01 µM (inactive)
- GI50 (SNB-19): 14.6 µM (inactive)
- GI50 (UACC-62): 12.2 µM (inactive)
- GI50 (SW-620): 1.67 µM (inactive)
- GI50 (OVCAR-3): 7.16 µM (inactive)
- GI50 (CAKI-1): 1.66 µM (inactive)
- GI50 (RPMI-8226): 3.98 µM (inactive)
- GI50 (U-251): 9.98 µM (inactive)
- GI50 (NCI/ADR-RES): 3.91 µM (inactive)
- GI50 (IGROV-1): 3.75 µM (inactive)
- GI50 (MCF7): 2.97 µM (inactive)
- GI50 (SK-MEL-5): 11.7 µM (inactive)
- GI50 (DU-145): 10.4 µM (inactive)
- GI50 (OVCAR-4): 6.28 µM (inactive)
- GI50 (786-0): 2.84 µM (inactive)
- GI50 (KM12): 17.4 µM (inactive)
- GI50 (EKVX): 5.87 µM (inactive)
- GI50 (NCI-H226): 2.19 µM (inactive)
- GI50 (Hs-578T): 10.6 µM (inactive)
- GI50 (Malme-3M): 1.59 µM (inactive)
- GI50 (SF-539): 1.64 µM (inactive)
- GI50 (RXF 393): 569 nM (active)
- GI50 (A549): 16.2 µM (inactive)
- GI50 (HOP-62): 15.8 µM (inactive)
